Test results taken from patent publication US6528251B2, “Method of managing the chemotherapy of patients who are HIV positive based on the phenotypic drug sensitivity of human HIV strains” (Virco N.V., priority 1996, dated 2003).
Read-outs that look alike come from different tables or passages of the source.

Columns and labels:
Format in all cases: cell-based, HIV-1
[1] = tested on: Recombinant wild type HIV strain recIIIB; test: Antiviral MT4/MTT assay with reference virus recIIIB
Protocol: (§1) After titration of the new viruses, the stocks were used for antiviral experiments in the presence of serial dilutions of different HIV inhibitors. Titres of the harvested supematants were determined by limited serial dilution titration of virus in MT4 cells.
(§2) Viruses with a useful titre were used in antiviral experiments. For this purpose, 96-well microtitre plates were filled with 100μl of complete culture medium. Subsequently, stock solutions of compounds were added in 25 μl volumes to series of duplicate wells. HIV- and mock-infected cell samples were included for each drug (or drug combination). Exponentially growing MT4 cells were then transferred to the microtitre plates at a density of 150,000 cells/ml. The cell cultures were then incubated at 37° C. in a humidified atmosphere of 5% CO2. Five days after infection, the viability of the mock- and HIV-infected cells was examined spectrophotometrically by the M1T method (Pauwels, R. et al. J. Virol. Meth. (1988), 20: 309-321) as described in Section 6 below.
(§3) To each well of the microtiter plates, 20 μl of a solution of MTT (7.5 mg/ml in PBS) was added. The plates were further incubated at 37° C. for 1 h. Then, 150 μl of medium was removed without disturbing the MT4 cell clusters containing the formazan crystals. Solubilization of the formazan crystals was achieved by adding 100 μl 5% Triton X-100 in acidified isopropanol (5 ml concentrated HCl per liter solvent). Complete dissolution of the formazan crystals was obtained after the plates had been placed on a plate shaker for 10 min. Finally the absorbances were read at two wavelengths (540 and 690 nm). From these optical density (OD) data, 50% inhibitory (IC50) and 50% cytotoxic (CC50) concentrations were derived.

[2] = tested on: recombinant virus from patient viral RNA (Example 5, 3TC resistant HIV strains); test: Recombinant virus assay (MT4/MTT), patient of Example 5 (AZT, then AZT+3TC therapy); details: for ratio (1)/(2): Table 1, patient mean IC50 / recIIIB IC50, Example 5
Protocol: (§4) RNA was isolated from 100 μl of plasma according to the method described by Boom, R. et al. (1990, supra), and was reverse transcribed with the GeneAmp reverse transcriptase kit (Perkin Elmer) as described by the manufacturer and using an HIV-1 specific downstream primer (OUT3: 5′-CATTGCTCTCCAATTACTGTGATATTTCTCATC-3′; SEQ ID NO: 1). PCR on reverse transcribed RNA was performed with inner and outer primers as described by Kellam, P. and Larder, B. A. (1994, supra). After chloroform extraction and centrifugation on Centricon 100 columns or centrifugation on anion-exchange spin columns (Quiagen), the isolated PCR product was ready for use in the transfection reactions.
(§5) MT4 cells were subcultured at a density of 250,000 cells/ml before transfection (exponential growth phase). Cells were pelleted and resuspended in phosphate buffered saline (PBS) at a concentration of […]. A 0.8 ml portion (2.5 10E6 cells/ml) was used for each transfection. Transfection was performed with the Bio-Rad Gene pulser making use of 0.4 cm electrode cuvettes. Cells were electroporated in the presence of […] of linearised pHIVΔRT plasmid and approximately 5 μg of RT PCR product at 250SF and 300 V, followed by a 30-min incubation at room temperature. Subsequently, 10 ml of fresh culture medium was added to the cell suspension and incubation was performed at 37° C. in a humidified atmosphere of 5% CO2.
(§6) During 7 to 10 days following the transfection, cells were monitored for the appearance of cytopathogenic effect (CPE). In the absence thereof, cells were subcultured in different flasks. Subsequently, culture supernatants of transfected cells were used to create a stock of recombinant virus and stored in 1.5 ml aliquots at −70° C.
as §1, §2, §3
An HIV infected patient who received AZT from December 1989 until an undocumented later date, and switched to a combined chemotherapy of AZT+3TC (1:1) from February 1994 until October 1995 donated plasma whose susceptibility to a number of RT inhibitors was determined according to the above described protocol of Example 1. Recombinant wild type HIV strain recIIIB was used in said protocol as a reference HIV virus.

[3] = tested on: recombinant virus from patient viral RNA (Example 6, drug-naive patient); test: Recombinant virus assay (MT4/MTT), drug-naive patient of Example 6; details: for IC50: Human immunodeficiency virus 1, Table 2, Example 6 patient virus; for ratio (1)/(2): Table 2, patient mean IC50 / recIIIB IC50, Example 6
Protocol: as §4, §5, §6, §1, §2, §3
A drug-naive HIV infected patient donated plasma whose susceptibility to a number of RT inhibitors was determined according to the above described protocol of Example 1. Recombinant wild type HIV strain recIIIB was used in said protocol as a reference HIV virus.

[4] = tested on: recombinant virus from patient viral RNA (Example 7, drug-naive patient); test: Recombinant virus assay (MT4/MTT), drug-naive patient of Example 7; details: for IC50: Human immunodeficiency virus 1, Table 3, Example 7 patient virus; for ratio (1)/(2): Table 3, patient mean IC50 / recIIIB IC50, Example 7
Protocol: as §4, §5, §6, §1, §2, §3
A drug-naive HIV-infected patient donated plasma whose susceptibility to a number of RT inhibitors was determined according to the protocol set out in Example 1. Recombinant wild type HIV strain recIIIB was used as a reference HIV virus.

[5] = tested on: recombinant virus from patient viral RNA (Example 8); test: Recombinant virus assay (MT4/MTT), patient of Example 8 (therapy history AZT, 3TC and loviride); details: for IC50: Human immunodeficiency virus 1, Table 4, Example 8 patient virus; for ratio (1)/(2): Table 4, patient mean IC50 / recIIIB IC50, Example 8
Protocol: as §4, §5, §6, §1, §2, §3
(§7) An HIV-infected patient with a therapy history including AZT, 3TC and loviride donated plasma whose susceptibility to a number of RT inhibitors was determined according to the protocol set out in Example 1. Recombinant wild type HIV strain recIIIB was used as a reference HIV virus.

[6] = tested on: recombinant virus from patient viral RNA (Example 9); test: Recombinant virus assay (MT4/MTT), patient of Example 9 (multiple nucleoside analogue RT-inhibitors); details: for IC50: Human immunodeficiency virus 1, Table 5, Example 9 patient virus; for ratio (1)/(2): Table 5, patient mean IC50 / recIIIB IC50, Example 9
Protocol: as §4, §5, §6, §1, §2, §3
as §7, with “multiple nucleoside analogue RT-inhibitors” for “AZT, 3TC and loviride”

[7] = Human immunodeficiency virus 1, Table 1, reference run of Example 5, read-out: Anti-HIV-1 activity IC50 (μM) recIIIB ref (2)
[8] = Human immunodeficiency virus 1, Table 2, reference run of Example 6, read-out: Anti-HIV-1 activity IC50 (μM) recIIIB ref (2)
[9] = Human immunodeficiency virus 1, Table 3, reference run of Example 7, read-out: Anti-HIV-1 activity IC50 (μM) recIIIB ref (2)
[10] = Human immunodeficiency virus 1, Table 4, reference run of Example 8, read-out: Anti-HIV-1 activity IC50 (μM) recIIIB ref (2)
[11] = Human immunodeficiency virus 1, Table 5, reference run of Example 9, read-out: Anti-HIV-1 activity IC50 (μM) recIIIB ref (2)
[12] = Human immunodeficiency virus 1, Table 1, Example 5 patient virus, MT4 cells, read-out: Anti-HIV-1 activity IC50 (μM) Exp. 1
[13] = Human immunodeficiency virus 1, Table 1, Example 5 patient virus, MT4 cells, read-out: Anti-HIV-1 activity IC50 (μM) Exp. 2
[14] = Human immunodeficiency virus 1, Table 1, Example 5 patient virus, mean of Exp. 1 and 2, read-out: Anti-HIV-1 activity IC50 (μM) Mean (1)
[15] = MT4 cells, read-out: Anti-HIV-1 activity IC50 (μM) Exp. 1
[16] = MT4 cells, read-out: Anti-HIV-1 activity IC50 (μM) Exp. 2
[17] = mean of Exp. 1 and 2, read-out: Anti-HIV-1 activity IC50 (μM) Mean (1)
[18] = mean, read-out: Anti-HIV-1 activity IC50 (μM) Mean (1)

Row | Compound | IC50 [1, 8] [µM] | IC50 [1, 9] [µM] | IC50 [1, 10] [µM] | IC50 [1, 11] [µM] | ratio (1)/(2) [2] | IC50 [3, 15] [µM] | IC50 [3, 16] [µM] | IC50 [3, 17] [µM] | ratio (1)/(2) [3] | IC50 [4, 15] [µM] | IC50 [4, 18] [µM] | ratio (1)/(2) [4] | IC50 [5, 15] [µM] | IC50 [5, 16] [µM] | IC50 [5, 18] [µM] | ratio (1)/(2) [5] | IC50 [6, 15] [µM] | IC50 [6, 16] [µM] | IC50 [6, 18] [µM] | ratio (1)/(2) [6] | other results
1 | O=c1[nH]cnc2c1ncn2[C@H]1CC[C@@H](CO)O1 [ddI, didanosinen] | 8.58 | 0.648 | 1.59 | 4.76 | 0.5 | 3.07 | 4.47 | 3.77 | 0.4 | 0.475 | 0.452 | 0.7 | 26.9 | 15.4 | 21.1 | 13 | > 100 | > 100 | > 100 | >21 | IC50 [1, 7]: 2.83 µM; IC50 [2, 12]: 2 µM; IC50 [2, 13]: 0.8 µM; IC50 [2, 14]: 1.4 µM; IC50 [4, 16]: 0.429 µM
2 | Nc1ccn([C@@H]2CS[C@H](CO)O2)c(=O)n1 [3TC, lamivudine] | 3.08 | 1.38 | 6.3 | 16.7 | 118 | 1.81 | 2.02 | 1.91 | 1 | 2.17 | 2.17 | 2 | > 100 | > 100 | > 100 | >16 | > 100 | > 100 | > 100 | >6 | IC50 [1, 7]: 0.56 µM; IC50 ([1]; Human immunodeficiency virus 1, Table 6, reference run of Example 10, read-out: Anti-HIV-1 activity IC50 (μM) recIIIB ref (2)): 4.61 µM; IC50 ([1]; Human immunodeficiency virus 1, read-out: Anti-HIV-1 activity IC50 (μM) recIIIB ref (2), Table 7, reference run of Example 11): 5.18 µM; IC50 ([1]; Human immunodeficiency virus 1, read-out: Anti-HIV-1 activity IC50 (μM) recIIIB ref (2), Table 8, reference run of Example 12): 4.61 µM; IC50 [2, 12]: 31.6 µM; IC50 [2, 13]: 100 µM; IC50 [2, 14]: 65.8 µM
3 | Nc1ccn([C@H]2CC[C@@H](CO)O2)c(=O)n1 [ddC, zalcitabine] | 2.21 | 1.62 | 1.93 | 3.44 | 0.5 | 1.45 | 1.47 | 1.46 | 1 | 1.04 | 1.22 | 0.8 | 9.29 | 8.51 | 8.9 | 5 | 60.1 | 73 | 66.6 | 19 | IC50 [1, 7]: 0.38 µM; IC50 [2, 12]: 0.2 µM; IC50 [2, 13]: 0.2 µM; IC50 [2, 14]: 0.2 µM; IC50 [4, 16]: 1.39 µM
4 | Cc1cn([C@H]2C=C[C@@H](CO)O2)c(=O)[nH]c1=O [d4T, stavudine] | 1.74 | 1.37 | 5.46 | 12 | 0.5 | 1.31 | 0.97 | 1.14 | 1 | 1.14 | 1.4 | 1 | 7.5 | 7.1 | 7.3 | 1 | > 100 | > 100 | > 100 | >8 | IC50 ([1]; Human immunodeficiency virus 1, read-out: Anti-HIV-1 activity IC50 (μM) recIIIB ref (2), Table 1, reference run of Example 5): 0.12 µM; IC50 ([2]; Human immunodeficiency virus 1, MT4, read-out: Anti-HIV-1 activity IC50 (μM) Exp. 1): 0.07 µM; IC50 ([2]; Human immunodeficiency virus 1, MT4, read-out: Anti-HIV-1 activity IC50 (μM) Exp. 2): 0.49 µM; IC50 ([2]; Human immunodeficiency virus 1, read-out: Anti-HIV-1 activity IC50 (μM) Mean (1)): 0.06 µM; IC50 [4, 16]: 1.66 µM
